From patent US20220041667A1, “TARGETING OF MAKAP-PDE4D3 COMPLEXES IN NEURODEGENERATIVE DISEASE” (The Board of Trustees of the Leland Stanford Junior …, priority 2018, published 2022)

Key:
hippocampal neurons = assay: Neurite extension assay (length of longest neurite) in primary hippocampal neurons; assay type: cell-based, rat; conditions: for effect on neurite extension (pharmacological induction): hippocampal neurons, 40 mM KCl, 10 μM FSK, 100 μM IBMX, 20 μM milrinone or 10 μM rolipram for 2 days
Procedure: Primary rat hippocampal neurons: Hippocampal cultures were prepared from Sprague Dawley rat embryonic day 18 embryos. Briefly, the rat hippocampal CA1-CA3 region was dissected in PBS medium with 10 mM D-glucose and digested with 0.05% trypsin-EDTA in PBS with 11 mM D-glucose for 30 min at 37° C. The dissociated tissues were centrifuged at 250 g for 2 min and then triturated with fire polished glass pipet in Hank's balanced salt solution (HBSS) with calcium and magnesium in plating medium (10% v/v horse serum in DMEM). Dissociated neurons were plated on nitric acid-treated 25-mm cover glass coated with poly-L-lysine in plating medium. Four hours after plating, the medium was replaced with maintenance medium supplemented with 1% N2, 2% B27 (Invitrogen, Carlsbad, Calif., USA), 5 mM D-glucose, 1 mM sodium pyruvate. Four days later, 4 μM arabinosyl cytosine was added to inhibit glial proliferation and the neurons were either transfected with JPEI or infected with adenovirus.
Live cell imaging was performed 36-72 h after transfection/infection as described below. For neurite extension assays, the cells were cultured for two days in DMEM with 1 μg/ml chicken egg albumin and 1 mM sodium pyruvate. 40 mM KCl, 10 μM FSK, 100 μM IBMX, 20 μM Milrinone, 10 μM Rolipram were included as indicated. Two days later, the neurons were fixed and stained with antibodies. Nuclei were counter stained with DAPI and SlowFade Gold antifade solution (Molecular Probes) was added before coverslip mounting. Images were acquired with IPLab or Slidebook 6 by wide-field microscopy (Leica DMI 6000B or Zeiss Axio Observer 7) and processed with Adobe PhotoShop CSS 12.1. The length of the longest neurite for ˜15 neurons average per condition was measured for each experiment with ImageJ with Simple Neurite Tracer plugin. Other neuronal images were acquired using a Zeiss 880 confocal microscope.

[1] = molecular target: PKA (protein kinase A, in Cos-7 cells); assay: cell-based or functional assay

Question: Which “effect on neurite extension (pharmacological induction)” value (shortened to “effect … (pharmacological induction)”) (hippocampal neurons) does the source give for `CC(C)Cn1c(=O)n(C)c(=O)c2[nH]cnc21` [IBMX, 3-isobutyl-1-methylxanthine] here?
Answer: induced neurite extension

Question: For `[Cl-].[K+]` [KCl], which “increase in axon extension due to KCl depolarization alone” value (hippocampal neurons; GFP-expressing hippocampal neurons) is on record?
Answer: 29%

Question: What about the “effect … (pharmacological induction)” value (hippocampal neurons) of the same molecule?
Answer: induced neurite extension

Question: And the “increase in axon extension due to KCl depolarization alone” value (hippocampal neurons; mCherry-nesprin-expressing hippocampal neurons)?
Answer: 37%

Question: For `Cc1[nH]c(=O)c(C#N)cc1-c1ccncc1` [milrinone], which “effect … (pharmacological induction)” value (hippocampal neurons) is on record?
Answer: no effect on neurite growth

Question: How did the “effect … (pharmacological induction)” value (hippocampal neurons) turn out when `COc1ccc(C2CNC(=O)C2)cc1OC1CCCC1` (centres unmarked) [rolipram] was run?
Answer: induced neurite extension

Question: Which amplitude of PN-AKAR4 FRET transient after FSK pulse in Cos-7 cells [1] does the source give for “mAKAPα WT (N-terminally myc-tagged rat mAKAPα) (from UniProt Q9WVC7 1-2314)” here?
Answer: 50%

B1: mAKAP-SR-GFP: GFP-tagged fragment encoding the mAKAP spectrin-repeat domains (amino acid residues 586-1286) (protein)
chain: GSDSIKSPVPLLSKNKSQKSSPPAPCHATQNGQVVEAWYGSDEYLALPSHLKQTEVLALKLESLTKLLPQKPRGETIQDIDDWELSEMNSDSEIYPTYHIKKKHTRLGTVSPSSSSDIASSLGESIESGPLSDILSDEDLCLPLSSVKKFTDEKSERPSSSEKNESHSATRSALIQKLMHDIQHQENYEAIWERIEGFVNKLDEFIQWLNEAMETTENWTPPKAETDSLRLYLETHLSFKLNVDSHCALKEAVEEEGHQLLELVVSHKAGLKDTLRMIASQWKELQRQIKRQHSWILRALDTIKAEILATDVSVEDEEGTGSPKAEVQLCHLETQRDAVEQMSLKLYSEQYTSGSKRKEEFANMSKAHAEGSNGLLDFDSEYQELWDWLIDMESLVMDSHDLMMSEEQQQHLYKRYSVEMSIRHLKKSELLSKVEALKKGGLSLPDDILEKVDSINEKWELLGKTLREKIQDTIAGHSGSGPRDLLSPESGSLVRQLEVRIKELKRWLRDTELFIFNSCLRQEKEGTSAEKQLQYFKSLCREIKQRRRGVASILRLCQHLLDDRDTCNLNADHQPMQLIIVNLERRWEAIVMQAVQWQTRLQKKMGKESETLNVIDPGLMDLNGMSEDALEWDETDISNKLISVHEESNDLDQDPEPMLPAVKLEETHHKDSGYEEEAGDCGGSPYTSNITAPSSPHIYQV
modifications: left off: large carriers
Question: B1 was tested. Which “effect on axon outgrowth (longest neurite length)” value (hippocampal neurons; hippocampal neurons in defined media and with chronic KCl depolarization, vs GFP control) did it give?
Answer: inhibited axon outgrowth
